Our source for the half-life values is ChEMBL document CHEMBL1154999, “N-(2,2-Dimethyl-2-(2-nitrophenyl)acetyl)-4-aminocyclophosphamide as a potential bioreductively activated prodrug of phosphoramide mustard” (Bioorg Med Chem Lett, 2008).

What all share (type): physicochemical
A short description of data set [1]: Chemical stability in sodium acetate buffer assessed as half life at pH 4.0 at 37 degC.
Data set [2] can be described thus: Chemical stability in sodium acetate buffer assessed as half life at pH 4.5 at 37 degC.
A short description of data set [3]: Chemical stability in sodium acetate buffer assessed as half life at pH 5.0 at 37 degC.
A short description of data set [4]: Chemical stability in sodium acetate buffer assessed as half life at pH 5.4 at 37 degC.
Data set [5] can be described thus: Chemical stability in sodium acetate buffer assessed as half life at pH 5.6 at 37 degC.
A short description of data set [6]: Chemical stability in sodium phosphate buffer assessed as half life at pH 6.0 at 37 degC.
Data set [7] can be described thus: Chemical stability in sodium phosphate buffer assessed as half life at pH 6.5 at 37 degC.
Data set [8] is described as follows: Chemical stability in sodium phosphate buffer assessed as half life at pH 7.4 at 37 degC.

As for `CC(C)(C(=O)NC1CCOP(=O)(N(CCCl)CCCl)N1)c1ccccc1N` (stereo not drawn), the half-life in data set [1] was determined as 3.2 min; in data set [2], 4.9 min; in data set [3], 9.8 min; in data set [4], 17.5 min; in data set [5], 27.2 min; in data set [6] it was 12.6 min. Besides, the results for the half-life in data set [7] and in data set [8] were 19.3 min and 53.7 min, respectively.
